Data from the supplement of paper PMC10307832.

Experiments:
Assay in all cases: relative viability (nuclei count vs DMSO), 5 days (fraction); higher = more cells survive
[1] = compound: CCN1C(=O)C2=CC(=C(N=C2N(C1=O)C3CC3)N)C(=O)N + C[C@]1(O)C[C@@H](c2nc(-c3ccc4ccc(-c5ccccc5)nc4c3)c3c(N)nccn32)C1 [Linsitinib] (partner 1 µM)
Outline: (§1)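 Medians of duplicate plates are given as relative viability. That measure is the nuclei count in treated wells divided by the count in vehicle wells. Counts were taken on 4× images of lung cancer cell lines in 1536-well plates, 5 days after pin-tool dosing the day after seeding with one drug alone or a fixed anchor-drug dose plus five library-drug doses (not always all listed) in √10 steps.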

[2] = compound: CCN1C(=O)C2=CC(=C(N=C2N(C1=O)C3CC3)N)C(=O)N + Cc1nc(NC(=O)N2CCC[C@H]2C(N)=O)sc1-c1ccnc(C(C)(C)C(F)(F)F)c1 [Alpelisib] (partner 2 µM)
Outline: as §1

[3] = compound: CCN1C(=O)C2=CC(=C(N=C2N(C1=O)C3CC3)N)C(=O)N + C[C@@H](Oc1cc(-c2cnn(C3CCNCC3)c2)cnc1N)c1c(Cl)ccc(F)c1Cl [Crizotinib] (partner 1 µM)
Outline: as §1

[4] = compound: CCN1C(=O)C2=CC(=C(N=C2N(C1=O)C3CC3)N)C(=O)N + CS(=O)(=O)N1CCN(Cc2cc3nc(-c4cccc5[nH]ncc45)nc(N4CCOCC4)c3s2)CC1 [Pictilisib] (partner 1 µM)
Outline: as §1

[5] = compound: CCN1C(=O)C2=CC(=C(N=C2N(C1=O)C3CC3)N)C(=O)N + CC(C)C[C@H](NC(=O)[C@H](Cc1ccccc1)NC(=O)c1cnccn1)B(O)O [Bortezomib] (partner 0.002 µM)
Outline: as §1

| Cell Line | relative viability ([1]; first compound 0.253 µM) | relative viability ([1]; first compound 0.8 µM) | relative viability ([1]; first compound 2.53 µM) | relative viability ([1]; first compound 8 µM) | relative viability ([2]; first compound 0.253 µM) | relative viability ([2]; first compound 0.8 µM) | relative viability ([2]; first compound 2.53 µM) | relative viability ([2]; first compound 8 µM) | relative viability ([3]; first compound 0.253 µM) | relative viability ([3]; first compound 0.8 µM) | relative viability ([3]; first compound 2.53 µM) | relative viability ([3]; first compound 8 µM) | relative viability ([4]; first compound 0.253 µM) | relative viability ([4]; first compound 0.8 µM) | relative viability ([4]; first compound 2.53 µM) | relative viability ([4]; first compound 8 µM) | relative viability ([5]; first compound 0.253 µM) | relative viability ([5]; first compound 0.8 µM) | relative viability ([5]; first compound 2.53 µM) | relative viability ([5]; first compound 8 µM) |
| --- | --- | --- | --- | --- | --- | --- | --- | --- | --- | --- | --- | --- | --- | --- | --- | --- | --- | --- | --- | --- |
| 201T | 1 | 0.991 | 0.952 | 1.01 | 1.04 | 1.02 | 1.04 | 1.04 | 1.08 | 0.97 | 0.98 | 1.03 | 0.688 | 0.621 | 0.722 | 0.635 | 1.1 | 1.07 | 1.09 | 1.05 |
| A549 | – | 0.605 | 0.505 | 0.516 | 0.698 | 0.858 | 0.746 | 0.931 | 0.712 | 0.76 | 0.732 | 0.886 | 0.557 | 0.553 | 0.41 | 0.592 | – | – | – | – |
| A-427 | 1.24 | 1.11 | 1.04 | 1.1 | 1.02 | 1.04 | 1.04 | 1.09 | 0.986 | 1.08 | 0.774 | 1.06 | 0.724 | 0.578 | 0.645 | 0.727 | 0.938 | 0.963 | 0.965 | 0.956 |
| ABC-1 | 0.825 | 0.989 | 0.72 | 0.876 | 1.23 | 0.751 | 1.11 | 0.969 | 1.21 | 1.04 | 1.18 | 1.32 | 0.761 | 0.667 | 0.82 | 0.699 | 0.298 | 0.325 | 0.312 | 0.266 |
| BEN | 0.961 | 0.92 | 0.919 | 0.954 | 1.07 | 1.02 | 0.929 | 1.01 | 0.713 | 0.865 | 0.903 | 1.07 | 0.539 | 0.522 | 0.62 | 0.519 | 0.951 | 0.68 | 1.1 | 0.697 |
| CAL-12T | 0.792 | 0.773 | 0.721 | 0.776 | 1.07 | 1.07 | 0.964 | 1.21 | 0.549 | 0.595 | 0.702 | 0.783 | 0.431 | – | 0.437 | 0.541 | 1.11 | – | 1.09 | 1.08 |
| COR-L23 | 0.89 | 0.9 | 0.776 | 1.03 | 0.775 | 0.714 | 0.816 | 0.944 | 0.594 | 0.635 | 0.567 | 0.695 | 0.814 | 0.751 | 0.729 | 0.947 | 1 | 0.944 | 1.12 | 0.95 |
| COR-L 105 | 1.12 | 1.04 | 0.945 | 0.939 | 1.08 | 0.959 | 0.833 | 0.853 | 0.915 | 0.726 | 0.732 | 0.995 | 0.453 | 0.366 | 0.412 | 0.369 | 0.866 | 0.709 | 0.856 | 0.738 |
| ChaGo-K-1 | – | – | – | – | – | – | – | – | 1.14 | 1.13 | 1.14 | 1.41 | 0.916 | 0.563 | 0.91 | 0.766 | 1.12 | 0.87 | 1.1 | 1.1 |
| EKVX | 1.03 | 1.03 | 0.934 | 0.998 | 0.975 | 0.896 | 0.821 | 0.851 | 1.07 | 1.14 | 0.837 | 1.05 | 0.439 | 0.411 | 0.388 | 0.438 | 1.18 | 1.14 | 1.07 | 0.901 |
| EMC-BAC-2 | 0.848 | 0.837 | 0.754 | 0.888 | 0.808 | 0.743 | 0.725 | 0.796 | 0.841 | 0.734 | 0.713 | 0.855 | 0.642 | 0.536 | 0.456 | 0.584 | 1.12 | 1.04 | 0.9 | 1.06 |
| EPLC-272H | 1.18 | 1.28 | 1.37 | 1.36 | 0.801 | 0.868 | 0.901 | 0.942 | 0.997 | 0.998 | 0.906 | 0.988 | 0.296 | 0.288 | 0.389 | 0.333 | 0.828 | 0.75 | 0.827 | 1 |
| H3255 | 0.879 | 0.908 | 0.835 | 1.03 | 0.653 | 0.609 | 0.631 | 0.624 | 0.805 | 0.936 | 0.885 | 0.965 | 0.509 | 0.47 | 0.504 | 0.513 | 0.866 | 0.565 | 0.934 | 0.706 |
| HARA | 0.971 | 0.942 | 0.829 | 0.94 | 0.817 | 0.787 | 0.79 | 0.964 | 1.1 | 1.04 | 0.946 | 1.16 | 0.403 | 0.36 | 0.379 | 0.486 | 1.18 | 1.12 | 1.11 | 1.15 |
